# pEC50, pIC50: −log10 of the molar value.
# Target: Human immunodeficiency virus type 1 reverse transcriptase (Human immunodeficiency virus 1, UniProt Q72547, L100I)
# Experiment: Inhibition of HIV-1 reverse transcriptase L100I mutant assessed as reduction in dTTP incorporation using poly(rA)/oligo(dT)16 as template/primer after 40 mins by PicoGreen dye based spectrofluorometric analysis
# Details: not given
row,Structure (SMILES),pIC50
1,O=c1[nH]c2ccc(Cl)cc2n1S(=O)(=O)CCc1cccc(Cl)c1,≤ 3.55
2,O=c1[nH]c2ccc(Cl)cc2n1S(=O)(=O)Cc1ccccc1Cl,5.15
3,Cc1ccccc1CCS(=O)(=O)n1c(=O)[nH]c2ccc(Cl)cc21,4.23
4,O=c1[nH]c2ccc(Cl)cc2n1S(=O)(=O)CCc1ccccc1Cl,3.67
5,O=c1[nH]c2ccc(Cl)cc2n1S(=O)(=O)Cc1ccccc1,4.05
6,O=c1[nH]c2ccc(Cl)cc2n1S(=O)(=O)Cc1ccc(Cl)cc1,4.04
7,Cc1ccc(CCS(=O)(=O)n2c(=O)[nH]c3ccc(Cl)cc32)cc1,3.51
8,O=c1[nH]c2ccc(Cl)cc2n1S(=O)(=O)CCc1ccc(Cl)cc1,3.74

# Test system: not listed separately
# Experiment: Selectivity index, ratio of CC50 for human MT4 cells to EC50 for HIV1 3B infected in human MT4 cells
# Type: toxicity, cell-based
# Details: HIV1 3B infected MT4 cells, read-out: Ratio CC50/EC50
row,Structure (SMILES),selectivity ratio
1,O=c1[nH]c2ccc(Cl)cc2n1S(=O)(=O)CCc1cccc(Cl)c1,< 1
2,O=c1[nH]c2ccc(Cl)cc2n1S(=O)(=O)Cc1ccccc1Cl,271
3,Cc1ccccc1CCS(=O)(=O)n1c(=O)[nH]c2ccc(Cl)cc21,< 1
4,O=c1[nH]c2ccc(Cl)cc2n1S(=O)(=O)CCc1ccccc1Cl,< 1
5,O=c1[nH]c2ccc(Cl)cc2n1S(=O)(=O)Cc1ccccc1,187
6,O=c1[nH]c2ccc(Cl)cc2n1S(=O)(=O)Cc1ccc(Cl)cc1,15
7,Cc1ccc(CCS(=O)(=O)n2c(=O)[nH]c3ccc(Cl)cc32)cc1,< 1
8,O=c1[nH]c2ccc(Cl)cc2n1S(=O)(=O)CCc1ccc(Cl)cc1,< 1

# Target: Human immunodeficiency virus type 1 reverse transcriptase (Human immunodeficiency virus 1, UniProt Q72547, E138K)
# Experiment: Inhibition of HIV-1 reverse transcriptase E138K mutant assessed as reduction in dTTP incorporation using poly(rA)/oligo(dT)16 as template/primer after 40 mins by PicoGreen dye based spectrofluorometric analysis
# Details: not given
row,Structure (SMILES),pIC50
1,O=c1[nH]c2ccc(Cl)cc2n1S(=O)(=O)CCc1cccc(Cl)c1,< 3.49
2,O=c1[nH]c2ccc(Cl)cc2n1S(=O)(=O)Cc1ccccc1Cl,4.92
3,Cc1ccccc1CCS(=O)(=O)n1c(=O)[nH]c2ccc(Cl)cc21,4.31
4,O=c1[nH]c2ccc(Cl)cc2n1S(=O)(=O)CCc1ccccc1Cl,≤ 3.49
5,O=c1[nH]c2ccc(Cl)cc2n1S(=O)(=O)Cc1ccccc1,4.01
6,O=c1[nH]c2ccc(Cl)cc2n1S(=O)(=O)Cc1ccc(Cl)cc1,≤ 3.55
7,Cc1ccc(CCS(=O)(=O)n2c(=O)[nH]c3ccc(Cl)cc32)cc1,3.80
8,O=c1[nH]c2ccc(Cl)cc2n1S(=O)(=O)CCc1ccc(Cl)cc1,3.97

# Target: Human immunodeficiency virus type 1 reverse transcriptase (Human immunodeficiency virus 1, UniProt Q72547, Y188L)
# Experiment: Inhibition of HIV-1 reverse transcriptase Y188L mutant assessed as reduction in dTTP incorporation using poly(rA)/oligo(dT)16 as template/primer after 40 mins by PicoGreen dye based spectrofluorometric analysis
# Details: not given
row,Structure (SMILES),pIC50
1,O=c1[nH]c2ccc(Cl)cc2n1S(=O)(=O)CCc1cccc(Cl)c1,< 3.49
2,O=c1[nH]c2ccc(Cl)cc2n1S(=O)(=O)Cc1ccccc1Cl,< 3.47
3,Cc1ccccc1CCS(=O)(=O)n1c(=O)[nH]c2ccc(Cl)cc21,3.78
4,O=c1[nH]c2ccc(Cl)cc2n1S(=O)(=O)CCc1ccccc1Cl,< 3.49
5,O=c1[nH]c2ccc(Cl)cc2n1S(=O)(=O)Cc1ccccc1,< 3.43
6,O=c1[nH]c2ccc(Cl)cc2n1S(=O)(=O)Cc1ccc(Cl)cc1,< 3.47
7,Cc1ccc(CCS(=O)(=O)n2c(=O)[nH]c3ccc(Cl)cc32)cc1,3.60
8,O=c1[nH]c2ccc(Cl)cc2n1S(=O)(=O)CCc1ccc(Cl)cc1,3.64

# Target: Human immunodeficiency virus type 1 reverse transcriptase (Human immunodeficiency virus 1, UniProt Q72547, G190A)
# Experiment: Inhibition of HIV-1 reverse transcriptase G190A mutant assessed as reduction in dTTP incorporation using poly(rA)/oligo(dT)16 as template/primer after 40 mins by PicoGreen dye based spectrofluorometric analysis
# Details: not given
row,Structure (SMILES),pIC50
1,O=c1[nH]c2ccc(Cl)cc2n1S(=O)(=O)CCc1cccc(Cl)c1,3.59
2,O=c1[nH]c2ccc(Cl)cc2n1S(=O)(=O)Cc1ccccc1Cl,3.62
3,Cc1ccccc1CCS(=O)(=O)n1c(=O)[nH]c2ccc(Cl)cc21,4.27
4,O=c1[nH]c2ccc(Cl)cc2n1S(=O)(=O)CCc1ccccc1Cl,3.55
5,O=c1[nH]c2ccc(Cl)cc2n1S(=O)(=O)Cc1ccccc1,3.60
6,O=c1[nH]c2ccc(Cl)cc2n1S(=O)(=O)Cc1ccc(Cl)cc1,< 3.47
7,Cc1ccc(CCS(=O)(=O)n2c(=O)[nH]c3ccc(Cl)cc32)cc1,4.05
8,O=c1[nH]c2ccc(Cl)cc2n1S(=O)(=O)CCc1ccc(Cl)cc1,4.16

# Test system: not listed separately
# Experiment: Cytotoxicity against human MT4 cells assessed as reduction in cell viability after 5 days by MTT assay
# Type: cell-based
# Details: not given
row,Structure (SMILES),CC50 at 120 h [µM]
1,O=c1[nH]c2ccc(Cl)cc2n1S(=O)(=O)CCc1cccc(Cl)c1,63
2,O=c1[nH]c2ccc(Cl)cc2n1S(=O)(=O)Cc1ccccc1Cl,52
3,Cc1ccccc1CCS(=O)(=O)n1c(=O)[nH]c2ccc(Cl)cc21,32
4,O=c1[nH]c2ccc(Cl)cc2n1S(=O)(=O)CCc1ccccc1Cl,100
5,O=c1[nH]c2ccc(Cl)cc2n1S(=O)(=O)Cc1ccccc1,155
6,O=c1[nH]c2ccc(Cl)cc2n1S(=O)(=O)Cc1ccc(Cl)cc1,77
7,Cc1ccc(CCS(=O)(=O)n2c(=O)[nH]c3ccc(Cl)cc32)cc1,161
8,O=c1[nH]c2ccc(Cl)cc2n1S(=O)(=O)CCc1ccc(Cl)cc1,91

# Target: Human immunodeficiency virus type 1 reverse transcriptase (Human immunodeficiency virus 1, UniProt Q72547, Y181C)
# Experiment: Inhibition of HIV-1 reverse transcriptase Y181C mutant assessed as reduction in dTTP incorporation using poly(rA)/oligo(dT)16 as template/primer after 40 mins by PicoGreen dye based spectrofluorometric analysis
# Details: not given
row,Structure (SMILES),pIC50
1,O=c1[nH]c2ccc(Cl)cc2n1S(=O)(=O)CCc1cccc(Cl)c1,4.13
2,O=c1[nH]c2ccc(Cl)cc2n1S(=O)(=O)Cc1ccccc1Cl,< 3.47
3,Cc1ccccc1CCS(=O)(=O)n1c(=O)[nH]c2ccc(Cl)cc21,4.49
4,O=c1[nH]c2ccc(Cl)cc2n1S(=O)(=O)CCc1ccccc1Cl,3.75
5,O=c1[nH]c2ccc(Cl)cc2n1S(=O)(=O)Cc1ccccc1,≤ 3.56
6,O=c1[nH]c2ccc(Cl)cc2n1S(=O)(=O)Cc1ccc(Cl)cc1,< 3.47
7,Cc1ccc(CCS(=O)(=O)n2c(=O)[nH]c3ccc(Cl)cc32)cc1,3.75
8,O=c1[nH]c2ccc(Cl)cc2n1S(=O)(=O)CCc1ccc(Cl)cc1,3.97

# Target: Human immunodeficiency virus type 1 reverse transcriptase (Human immunodeficiency virus 1, UniProt Q72547, V106A)
# Experiment: Inhibition of HIV-1 reverse transcriptase V106A mutant assessed as reduction in dTTP incorporation using poly(rA)/oligo(dT)16 as template/primer after 40 mins by PicoGreen dye based spectrofluorometric analysis
# Details: not given
row,Structure (SMILES),pIC50
1,O=c1[nH]c2ccc(Cl)cc2n1S(=O)(=O)CCc1cccc(Cl)c1,4.35
2,O=c1[nH]c2ccc(Cl)cc2n1S(=O)(=O)Cc1ccccc1Cl,5.74
3,Cc1ccccc1CCS(=O)(=O)n1c(=O)[nH]c2ccc(Cl)cc21,4.36
4,O=c1[nH]c2ccc(Cl)cc2n1S(=O)(=O)CCc1ccccc1Cl,3.86
5,O=c1[nH]c2ccc(Cl)cc2n1S(=O)(=O)Cc1ccccc1,5.03
6,O=c1[nH]c2ccc(Cl)cc2n1S(=O)(=O)Cc1ccc(Cl)cc1,4.82
7,Cc1ccc(CCS(=O)(=O)n2c(=O)[nH]c3ccc(Cl)cc32)cc1,4.02
8,O=c1[nH]c2ccc(Cl)cc2n1S(=O)(=O)CCc1ccc(Cl)cc1,4.16

# Test system: Human immunodeficiency virus 1
# Experiment: Antiviral activity against HIV1 3B infected in human MT4 cells assessed as inhibition of virus-induced cytopathic effect after 5 days by MTT assay
# Type: functional, cell-based
# Details: Human immunodeficiency virus 1, 3B, MT4, 120 h
row,Structure (SMILES),pEC50
1,O=c1[nH]c2ccc(Cl)cc2n1S(=O)(=O)CCc1cccc(Cl)c1,< 4.19
2,O=c1[nH]c2ccc(Cl)cc2n1S(=O)(=O)Cc1ccccc1Cl,6.72
3,Cc1ccccc1CCS(=O)(=O)n1c(=O)[nH]c2ccc(Cl)cc21,< 4.49
4,O=c1[nH]c2ccc(Cl)cc2n1S(=O)(=O)CCc1ccccc1Cl,< 4.00
5,O=c1[nH]c2ccc(Cl)cc2n1S(=O)(=O)Cc1ccccc1,6.08
6,O=c1[nH]c2ccc(Cl)cc2n1S(=O)(=O)Cc1ccc(Cl)cc1,5.30
7,Cc1ccc(CCS(=O)(=O)n2c(=O)[nH]c3ccc(Cl)cc32)cc1,< 3.80
8,O=c1[nH]c2ccc(Cl)cc2n1S(=O)(=O)CCc1ccc(Cl)cc1,< 4.04

# Target: Human immunodeficiency virus type 1 reverse transcriptase (Human immunodeficiency virus 1, UniProt Q72547)
# Experiment: Inhibition of recombinant wild-type HIV-1 reverse transcriptase p66/p51 RNA-dependent DNA polymerase activity expressed in Escherichia coli JM109 assessed as reduction in dTTP incorporation using poly(rA)/oligo(dT)16 as template/primer after 40 mins by PicoGreen dye based spectrofluorometric analysis
# Details: not given
row,Structure (SMILES),pIC50
1,O=c1[nH]c2ccc(Cl)cc2n1S(=O)(=O)CCc1cccc(Cl)c1,3.88
2,O=c1[nH]c2ccc(Cl)cc2n1S(=O)(=O)Cc1ccccc1Cl,5.89
3,Cc1ccccc1CCS(=O)(=O)n1c(=O)[nH]c2ccc(Cl)cc21,4.54
4,O=c1[nH]c2ccc(Cl)cc2n1S(=O)(=O)CCc1ccccc1Cl,3.94
5,O=c1[nH]c2ccc(Cl)cc2n1S(=O)(=O)Cc1ccccc1,4.77
6,O=c1[nH]c2ccc(Cl)cc2n1S(=O)(=O)Cc1ccc(Cl)cc1,4.74
7,Cc1ccc(CCS(=O)(=O)n2c(=O)[nH]c3ccc(Cl)cc32)cc1,3.66
8,O=c1[nH]c2ccc(Cl)cc2n1S(=O)(=O)CCc1ccc(Cl)cc1,4.02

# Target: Human immunodeficiency virus type 1 reverse transcriptase (Human immunodeficiency virus 1, UniProt Q72547, K103N)
# Experiment: Inhibition of HIV-1 reverse transcriptase K103N mutant assessed as reduction in dTTP incorporation using poly(rA)/oligo(dT)16 as template/primer after 40 mins by PicoGreen dye based spectrofluorometric analysis
# Details: not given
row,Structure (SMILES),pIC50
1,O=c1[nH]c2ccc(Cl)cc2n1S(=O)(=O)CCc1cccc(Cl)c1,< 3.49
2,O=c1[nH]c2ccc(Cl)cc2n1S(=O)(=O)Cc1ccccc1Cl,< 3.47
3,Cc1ccccc1CCS(=O)(=O)n1c(=O)[nH]c2ccc(Cl)cc21,4.05
4,O=c1[nH]c2ccc(Cl)cc2n1S(=O)(=O)CCc1ccccc1Cl,< 3.49
5,O=c1[nH]c2ccc(Cl)cc2n1S(=O)(=O)Cc1ccccc1,< 3.43
6,O=c1[nH]c2ccc(Cl)cc2n1S(=O)(=O)Cc1ccc(Cl)cc1,< 3.47
7,Cc1ccc(CCS(=O)(=O)n2c(=O)[nH]c3ccc(Cl)cc32)cc1,< 3.47
8,O=c1[nH]c2ccc(Cl)cc2n1S(=O)(=O)CCc1ccc(Cl)cc1,3.64

# — ChEMBL document CHEMBL4052651, “Searching for novel N1-substituted benzimidazol-2-ones as non-nucleoside HIV-1 RT inhibitors” (Bioorg Med Chem, 2017)
